Reference: patent US20070270382A1, “Composition for Protecting Skin” (priority 2003, published 2007)

Columns and labels:
skin wrinkles = experiment: Skin wrinkle improving effect: wrinkles adjacent to eyes observed using a Charm View; assay type: in vivo, human; conditions: four persons having a weak skin barrier function; before and after taking sphingomyelin
Description: A capsule containing sphingomyelin 50 mg, phosphatidylserine 10 mg and gamma-linoleic acid 12.5 mg was used as a test material. Two capsules per one time were taken two times (morning and evening) a day. That is, four capsules were taken per a day and a medication period was three weeks. […] Four persons having a weak skin barrier function of the 21 examinees were selected and their skin states were measured before and after taking sphingomyelin.

hairless mice = experiment: Photoaging inhibitory effect of sphingomyelin (animal test, UV irradiation); assay type: in vivo
skin barrier = experiment: Skin barrier function improving effect: TEWL repair after tape stripping, before and after taking sphingomyelin; assay type: in vivo, human; conditions: for difference in TEWL, taking vs not-taking sphingomyelin (in words): 2 and 4 days
Description: In this Example, a person's sebum film was artificially injured to increase an amount of water loss. After that, it was confirmed that there was a difference of repair degrees of water loss before and after taking sphingomyelin. It was also confirmed that how much skin wrinkles due to the water loss were improved by taking sphingomyelin. A capsule containing sphingomyelin 50 mg, phosphatidylserine 10 mg and gamma-linoleic acid 12.5 mg was used as a test material. Two capsules per one time were taken two times (morning and evening) a day. That is, four capsules were taken per a day and a medication period was three weeks. Tests were carried out for 18 males and 3 females and the testing method was as follows. An amount of water loss of skin was measured for an inner region of an arm using a TEWL meter TM210. A skin wound was induced by stripping off corneum with a tape many times and increasing a TEWL value (normally, around 6˜10) to 30 or more. In other words, after inducing an injury of a skin barrier using a tape, repair aspects of TEWL values in the injured region before and after taking sphingomyelin were compared and thus a skin barrier restoring effect of sphingomyeling was confirmed. Skin barrier function in a normal state was checked by measuring TEWL in a forearm from 21 persons. A TEWL value was increased to 30 or more after tape stripping and then TEWL was measured every other day. TEWL in a normal state was measured together with a measurement of TEWL in an injured region because TEWL in a normal state can be different according to conditions of temperature, humidity and weather, etc. Meanwhile, a same test was carried out to measure a medication effect of sphingomyelin and TEWL of skin was measured while taking sphingomyelin two times a day.

Sphingomyelin
wrinkle improving effect (FIG. 14) (skin wrinkles): had a wrinkle improving effect | state of skin (photographs, FIGS. 2 to 4) (hairless mice; UV irradiation+SM application vs UV only or UV+Vehicle, after completion of the test): the skin was extremely injured, compared to the case that the substrate containing sphingomyelin was applied after UV irradiation | skin barrier function (FIG. 1) (hairless mice; UV irradiation+SM application, 0.5% in 1,3-butyleneglycol/distilled water/ethanol 5:3:2, UV three times per week for three months, vs UV only or UV+Vehicle): the skin barrier was not easily damaged and remained in a level of the early stage of the test | skin barrier function (FIG. 1) (hairless mice; UV irradiation+SM oral administration): skin barrier protecting effect of sphingomyelin against ultraviolet was exhibited | skin histological test (FIG. 5): epidermis and dermis (hairless mice; sphingomyelin applied after UV irradiation vs only UV irradiation): the epidermis and dermis thereof were similar to those of at the early stage of the test | difference in TEWL, taking vs not-taking sphingomyelin (in words) (skin barrier; 21 persons (Table 3)): no significant difference | difference in TEWL, taking vs not-taking sphingomyelin (in words) (skin barrier; weak skin barrier function (Table 5)): no significant difference | difference of TEWL decreases, taking vs not-taking sphingomyelin (in words) (skin barrier; 6 days, weak skin barrier function (Table 5)): significant difference of TEWL decreases | % TEWL, taking sphingomyelin (skin barrier; day 0, 21 persons, capsule with sphingomyelin 50 mg, phosphatidylserine 10 mg, gamma-linoleic acid 12.5 mg, four capsules per day): 100 % TEWL | % TEWL, taking sphingomyelin (skin barrier; day 0, persons with weak skin barrier function (high TEWL in normal region)): 100 % TEWL | % TEWL, taking sphingomyelin (skin barrier; day 0, six examinees with relatively high decrease rate of TEWL): 100 % TEWL | % TEWL, taking sphingomyelin (skin barrier; day 2, 21 persons, oral capsules): 43.2 ± 11.5 % TEWL | % TEWL, taking sphingomyelin (skin barrier; day 2, persons with weak skin barrier function): 36.9 ± 18.9 % TEWL | % TEWL, taking sphingomyelin (skin barrier; day 2, six examinees with relatively high decrease rate of TEWL): 45.7 ± 10.7 % TEWL | % TEWL, taking sphingomyelin (skin barrier; day 4, 21 persons, oral capsules): 23.1 ± 8.1 % TEWL | % TEWL, taking sphingomyelin (skin barrier; day 4, persons with weak skin barrier function): 19.8 ± 8 % TEWL | % TEWL, taking sphingomyelin (skin barrier; day 4, six examinees with relatively high decrease rate of TEWL): 23.7 ± 7.5 % TEWL | % TEWL, taking sphingomyelin (skin barrier; day 6, 21 persons, oral capsules): 14.8 ± 7 % TEWL | % TEWL, taking sphingomyelin (skin barrier; day 6, persons with weak skin barrier function): 9.7 ± 5.8 % TEWL | % TEWL, taking sphingomyelin (skin barrier; day 6, six examinees with relatively high decrease rate of TEWL): 7.4 ± 4.3 % TEWL | difference in TEWL decrease, taking vs not-taking sphingomyelin (in words) (skin barrier; six days, 21 persons (FIG. 11), paired t-test): significant difference in a TEWL decrease
